These results are taken from PMC7667655, “Targeted Covalent Inhibition of Plasmodium FK506 Binding Protein 35” (ACS Medicinal Chemistry Letters, 2020).

Converted amounts (≈) assume the structure as drawn.

The test system of series [1] is NF54 P. falciparum parasites. Nature of the series: P. falciparum strain NF54 growth-inhibition assay. In kind it is cell-based. Conditions: Plasmodium falciparum; luciferase reporter NF54 line, 72 h. The method, then: Figure 6 P. falciparum strain NF54 growth-inhibition assay. […] Proliferation was measured by luminescence after a complete life-cycle and normalized to DMSO (100%) and chloroquine (100 nM, 0%). (B) Structural differences between synthetic ligands and compound IC50s (μM).
Substrate and Extracellular NanoLuc® Inhibitor (Promega, cat. N2160) were diluted at 1:166 and 1:500, respectively, in Opti -MEM I Reduced Serum Media. 25 µL of this solution was added to each well and plate was read immediately using an EnVision Multimode Plate Reader (PerkinElmer). The BRET ratio was calculated using the following formula:
BRET ratio = acceptorsample – acceptorno tracer control donorsample donorno tracer control
NanoBRET Target Engagement Assay (384-well)
HEK293T cells stably expressing either nLuc-FKBP12 or nLuc-FKBP35 were plated at 0.2×10^6 cells/mL in white, clear -bottom 384-well plates (Sigma Aldrich) in Opti -MEM I Reduced Serum Media (ThermoFisher Scientific) using a Mutidrop Combi Reagent Dispenser (ThermoFisher Scientific). Cells were incubated overnight at 37 °C, 5% CO 2. Using a Tecan D300e, the Rap-Gly-BDP tracer was added to cells to 1 µM. Plates were shaken at 700 RPM on an orbital plate shaker and incubated at 37 °C, 5% CO 2 for 10 minutes. Test compounds were added at the indicated concentrations using a Tecan D300e. Plates were shaken at 700 RPM on an orbital plate shaker and incubated at 37 °C, 5% CO 2 for 2 hours. NanoBRET Nano -Glo Substrate and Extracellular NanoLuc® Inhibitor (Promega, cat. N2160) were diluted at 1:166 and 1:500, respectively, in Opti-MEM I Reduced Serum Media. 10 µL of this solution was added to each well and plate was read immediately using an EnVision Multimode Plate Reader (PerkinElmer). The BRET ratio was calculated using the above formula.
Parasite Culture and Inhibition
NF54 P. falciparum parasites constitutively expressing Renilla luciferase (RLuc) and Blasticidin-S deaminase under the PfHsp86 5’ and PfHRP2 3‘ regulatory sequences integrated in the cg6 chromosomal locus 4 were maintained continuous ly in media consisting of human erythrocytes at 2% haematocrit (O+) resuspended in RPMI 1640 (Gibco® 31800022) supplemented with 5% Albumax (Gibco® 11021045; complete medium) and 2.5 µg/mL of Blasticidin (RPI Corp B12150-0.1) in a gas mixture consisting of 5% CO2, 1% O2, and 94% N2 at 37 °C (Trager and Jensen 2005).
Parasitemia was determined every 48 h through microscopic examination of thin blood smears fixed in methanol, stained with 10% Giemsa solution, and sub-cultured to 0.5-1% parasitaemia.
Compound susceptibility assays
In 96-well round-bottom plates, sorbitol -synchronized cultures of ring-stage NF54 P. falciparum parasites were established in triplicate and treated with varying concentrations of the inhibitors (25-0.0038 μM) serially diluted in complete medium. Parasite proliferation rates were analyzed after 72 h using the Renilla-Glo Luciferase Assay, and luminescence was measured using the GloMax® Discover Microplate Reader. EC 50 values were obtained from corrected dose-response curves using GraphPad Prism (version 5; GraphPad Software). Data represent the mean % luminescence relative to 5% DMSO-treated (vehicle, 100% growth) and 100 nM chloroquine-treated (no growth) controls.
In black, clear-bottom 96-well plates (No. 3904 Corning Life Sciences), HEK293T cells were plated at 2x10^5 cells/mL in DMEM high glucose, pyruvate media (ThermoFisher Scientific, cat. 11995073) supplemented with 10% FBS and 1% pen -strep (100 μL final volume). Cells were incubated overnight at 37°C, 5% CO2. Using a Tecan D300e digital dispenser, cells were dosed in triplicate […]
concentration, 100 mM stock in DMSO) and Carfilzomib (10 µM to 4.6 nM final concentration, 10 mM stock in DMSO) normalizing DMSO to 0.25%. Cells were then incubated at 37 °C, 5% CO2 for 72 hours. Following incubation, cells were treated with 70 µL CellTiter-Glo® Luminescent Cell […]
On the technique in general: A reporter such as luciferase makes a cellular process visible.

Another series can be described thus: PBS solubility. Conditions: pH 7.4.
In another series the target is T1, FKBP12 (Homo sapiens, UniProt P62942).
T1 construct: 6His-SUMO (N, cleaved yes); made in house; host or cells: E. coli (identical protocol to FBD35, BL21 DE3)
T1 sequence (P62942 whole entry): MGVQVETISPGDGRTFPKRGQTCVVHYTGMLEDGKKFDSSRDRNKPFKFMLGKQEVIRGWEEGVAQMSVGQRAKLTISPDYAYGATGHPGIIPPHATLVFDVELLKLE
Description: Differential scanning calorimetry, FKBP12. Conditions: compound 40 µM. In kind it is binding. Background: Differential scanning calorimetry records heat flow against a reference as temperature is scanned.

For another series, the target named is T2, nLuc-tagged FKBP12 (Homo sapiens, UniProt P62942).
T2 construct: full length Plasmodium falciparum FKBP35 and human FKBP12 DNA were; expressed in transfected cells
T2 sequence (P62942 whole entry): as above
Description: NanoBRET cellular target engagement, nLuc-FKBP12. In kind it is cell-based. For orientation: BRET reads energy transfer from a luciferase to a nearby fluorophore.

Series [2] concerns the target T3, FBD35 (PfFKBP35 binding domain) (Plasmodium falciparum, UniProt Q8I4V8).
T3 construct: FKBP35 Q5 -A128; 6His-SUMO (N, cleaved yes); made in house; host or cells: E. coli BL21 DE3
Nature of the series: Fluorescence polarization competition, FBD35.

The target of series [3] is T4, nLuc-tagged full length PfFKBP35 (Plasmodium falciparum, UniProt Q8I4V8).
T4 construct: nanoluciferase-tagged (nLuc) full length PfFKBP35 or nLuc-tagged FKBP12; expressed in transfected cells
T4 sequence (Q8I4V8 whole entry): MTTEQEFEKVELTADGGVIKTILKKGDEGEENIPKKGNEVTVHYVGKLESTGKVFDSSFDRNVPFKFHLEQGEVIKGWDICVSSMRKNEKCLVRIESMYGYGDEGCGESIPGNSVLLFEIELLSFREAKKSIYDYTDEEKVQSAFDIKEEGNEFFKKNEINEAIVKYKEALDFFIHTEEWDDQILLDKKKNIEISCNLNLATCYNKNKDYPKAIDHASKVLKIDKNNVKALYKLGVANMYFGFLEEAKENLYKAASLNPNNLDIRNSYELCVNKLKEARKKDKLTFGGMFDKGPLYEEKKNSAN
Nature of the series: NanoBRET cellular target engagement, nLuc-FKBP35. The series is classed as cell-based.

For series [4], the target named is T3, FBD35 (PfFKBP35 binding domain). Nature of the series: Differential scanning calorimetry, FBD35. As to conditions: read-out: FBD35 ΔTM.

T3 sequence (Q8I4V8 5-128): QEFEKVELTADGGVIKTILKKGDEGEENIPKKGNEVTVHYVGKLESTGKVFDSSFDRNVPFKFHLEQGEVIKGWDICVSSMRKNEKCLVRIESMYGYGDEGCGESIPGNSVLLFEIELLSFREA

For `C=CC(=O)Nc1cccc([C@@H](CCc2ccc(OC)c(OC)c2)OC(=O)[C@@H]2CCCCN2C(=O)C(=O)C(C)(C)CC)c1` [1a], the IC50 in series [1] is 1400 nM; on nLuc-tagged FKBP12 it was 481 nM; in series [2], 206 nM; in series [3] it was 1230 nM. In “PBS solubility”, this compound had a solubility of 0.31 µM (≈ 0.179 µg/mL). The shift in melting temperature (ΔTm) at 40 µM at FKBP12 came to 5.6 °C; in series [4] it was 13.4 °C.
`CCC(=O)Nc1cccc([C@@H](CCc2ccc(OC)c(OC)c2)OC(=O)[C@@H]2CCCCN2C(=O)C(=O)C(C)(C)CC)c1` [1b]: the half-inhibitory concentration (IC50) in series [1] worked out at 1900 nM; at nLuc-tagged FKBP12, 313 nM; in series [2] it was 76 nM; in series [3] it was 876 nM. Also, the thermal shift (ΔTm) at 40 µM on FKBP12 came out at 6.8 °C; in series [4], 2.8 °C.
As for `C=CC(=O)Nc1ccccc1[C@@H](CCc1ccc(OC)c(OC)c1)OC(=O)[C@@H]1CCCCN1C(=O)C(=O)C(C)(C)CC` [1c], the 50% inhibitory concentration (IC50) in series [1] amounted to 1900 nM; in series [2], 2850 nM. Moreover, in “PBS solubility”, the concentration in solution (solubility) was 3.5 µM (≈ 2.03 µg/mL). The ΔTm at 40 µM came out at 3.2 °C at FKBP12 and 9.6 °C in series [4]. For the same compound, the “fold weaker binding by FP” value in series [2] (acrylamide moved to ortho position, compared with 1a) is listed as over 10 fold.
As for `C=CC(=O)OCC(C)(C)C(=O)C(=O)N1CCCC[C@H]1C(=O)O[C@H](CCc1ccc(OC)c(OC)c1)c1ccccc1` [2c], the concentration for half-maximal inhibition (IC50) in series [1] turned out to be 13000 nM; against nLuc-tagged FKBP12 it was 601 nM; in series [2], 559 nM; in series [3] it was 854 nM. The solubility in the series “PBS solubility” was under 0.1 µM. Moreover, the values for the ΔTm at 40 µM (at FKBP12; in series [4]) were 5.2 °C and 14.5 °C, respectively.

For orientation: IC50 means the point on the concentration scale where inhibition reaches its midpoint. Low readings indicate greater potency, high ones weaker potency. What is called solubility is how much of the substance goes into solution per volume. Low values mean a poorly soluble substance, high ones a readily soluble substance. One may read the ΔTm as the change in melting temperature against a reference sample.
